In patent publication US20100298381A1, “GAMMA SECRETASE MODULATORS” (Schering Corporation, priority 2007, published 2010) one finds IC50 data, which are given here for 19 compounds.

The test system of assay [1] is Aβ42 in HEK293 cells overexpressing APP with Swedish and London mutations. The experiment in a line: Secretase reaction and Aβ analysis in whole cells, Aβ42 (ECL sandwich immunoassay). It is filed as cell-based. To be noted: Homo sapiens, 5 hour at 37° C. Here is the method: (§1) Secretase Reaction and Aβ Analysis in Whole Cells: HEK293 cells overexpressing APP with Swedish and London mutations were treated with the specified compounds for 5 hour at 37° C. in […] of DMEM medium containing 10% fetal bovine serum. At the end of the incubation, total Aβ, Aβ40 and Aβ42 were measured using electrochemiluminescence (ECL) based sandwich immunoassays. Total Aβ was determined using a pair of antibodies TAG-WO2 and biotin-4G8, Aβ40 was identified with antibody pairs TAG-G2-10 and biotin-4G8, while Aβ42 was identified with TAG-G2-11 and biotin-4G8. The ECL signal was measured using Sector Imager 2400 (Meso Scale Discovery).

The test system of assay [2] is total Aβ in HEK293 cells overexpressing APP with Swedish and London mutations. Kind of assay: Secretase reaction and Aβ analysis in whole cells, total Aβ (ECL sandwich immunoassay). It is filed as cell-based. To be noted: Homo sapiens, 5 hour at 37° C. Here is the method:
as §1

The IC50 is the concentration that inhibits the measured activity by half. As for `CC/N=C1\N/C(=C\c2ccc(-n3cnc(C)c3)c(OC)c2)C(=O)N1[C@H](C)c1ccc(F)cc1` [Example A9m], the IC50 in assay [1] is 46 to 94 nM; in assay [2] it was 778 to 20000 nM.
The corresponding values for `COc1cc(/C=C2\N/C(=N\CC3CC3)N(Cc3cc(F)c(F)c(F)c3)C2=O)ccc1-n1cnc(C)c1` [Example A9r] are 46 to 94 nM and 778 to 20000 nM.
Consider `CC/N=C1\N/C(=C\c2ccc(-n3cnc(C)c3)c(OC)c2)C(=O)N1Cc1cc(F)c(F)c(F)c1` [Example A9t], for which the IC50 in assay [1] was in the range of 46 to 94 nM; in assay [2] it was 778 to 20000 nM.
The corresponding values for `COc1cc(/C=C2\N/C(=N\CCO)N(Cc3cc(F)c(F)c(F)c3)C2=O)ccc1-n1cnc(C)c1` [Example A9u] are 46 to 94 nM and 778 to 20000 nM.
For `CC/N=C1\N/C(=C\c2ccc(-n3cnc(C)c3)c(OC)c2)C(=O)N1Cc1ccc(F)cc1` [Example B2] the same measures were 46 to 94 nM and 778 to 20000 nM.
The corresponding values for `COc1cc(/C=C2\N/C(=N\CCO)N(Cc3ccc(F)cc3)C2=O)ccc1-n1cnc(C)c1` [Example B4] are 46 to 94 nM and 778 to 20000 nM.
Take `CCCC/N=C1\N/C(=C\c2ccc(-n3cnc(C)c3)c(OC)c2)C(=O)N1Cc1ccc(F)cc1` [Example B5]: the figures for the IC50 in assay [1] and in assay [2] were 46 to 94 nM and 778 to 20000 nM, respectively.
The corresponding values for `COc1cc(/C=C2\N/C(=N\CC3CC3)N(Cc3ccc(F)cc3)C2=O)ccc1-n1cnc(C)c1` [Example B6] are 46 to 94 nM and 778 to 20000 nM.
The corresponding values for `COc1cc(/C=C2\NC(=N)N(C(C)c3cc(F)c(F)c(F)c3)C2=O)ccc1-n1cnc(C)c1` (centres unmarked) [Example B7] are 46 to 94 nM and 778 to 20000 nM.
The corresponding values for `CC/N=C1\N/C(=C\c2ccc(-n3cnc(C)c3)c(OC)c2)C(=O)N1C(C)c1cc(F)c(F)c(F)c1` (centres unmarked) [Example B8] are 46 to 94 nM and 778 to 20000 nM.
For the compound `COc1cc(/C=C2\N/C(=N\CCO)N(C(C)c3cc(F)c(F)c(F)c3)C2=O)ccc1-n1cnc(C)c1` (centres unmarked) [Example B10], the IC50 was in the range of 46 to 94 nM in assay [1] and 778 to 20000 nM in assay [2].
The corresponding values for `CCCC/N=C1\N/C(=C\c2ccc(-n3cnc(C)c3)c(OC)c2)C(=O)N1C(C)c1cc(F)c(F)c(F)c1` (centres unmarked) [Example B11] are 46 to 94 nM and 778 to 20000 nM.
The corresponding values for `COc1cc(/C=C2\N/C(=N\CC3CC3)N(C(C)c3cc(F)c(F)c(F)c3)C2=O)ccc1-n1cnc(C)c1` (centres unmarked) [Example B12] are 46 to 94 nM and 778 to 20000 nM.
For `COc1cc(/C=C2\NC(=N)N([C@H](C)c3ccc(F)cc3)C2=O)ccc1-n1cnc(C)c1` [Example B13] the same measures were 46 to 94 nM and 778 to 20000 nM.
On to `CCCC/N=C1\N/C(=C\c2ccc(-n3cnc(C)c3)c(OC)c2)C(=O)N1[C@H](C)c1ccc(F)cc1` [Example B14], for which the IC50 in assay [1] was 46 to 94 nM; in assay [2], 778 to 20000 nM.
For `COc1cc(/C=C2\N/C(=N\CCO)N([C@H](C)c3ccc(F)cc3)C2=O)ccc1-n1cnc(C)c1` [Example B15] the same measures were 46 to 94 nM and 778 to 20000 nM.
In the case of `COc1cc(/C=C2\N/C(=N\CC(F)(F)F)N([C@H](C)c3ccc(F)cc3)C2=O)ccc1-n1cnc(C)c1` [Example B18], the concentration for half-maximal inhibition (IC50) in assay [1] is 46 to 94 nM; in assay [2], 778 to 20000 nM.
As to `CCCC/N=C1\N/C(=C\c2ccc(-n3cnc(C)c3)c(OC)c2)C(=O)N1Cc1cc(F)c(F)c(F)c1` [Example B22], the IC50 in assay [1] is 46 to 94 nM; in assay [2], 778 to 20000 nM.
The corresponding values for `COc1cc(/C=C2\N/C(=N\CC(F)(F)F)N(Cc3cc(F)c(F)c(F)c3)C2=O)ccc1-n1cnc(C)c1` [Example B23] are 46 to 94 nM and 778 to 20000 nM.
